Measured values: patent US4840935A, “Peptide amino-alcohol derivatives containing a tetrasubstituted carbon atom, inhibiting renin and acid proteases, process for obtention and therapeutical use” (Sanofi, priority 1985, dated 1989)
Square brackets hold non-standard residues; d marks the D form. Peptide text beside a SMILES is read from it. * marks the point of attachment. ξ: configuration not given here. Propanoyl(3-(3-pyridyl)) = O=C(CCc1cccnc1)*; His(τ-Me) = Cn1cnc(C[C@H](N)C(=O)O)c1; Sta = CC(C)C[C@H](N)[C@@H](O)CC(=O)O; NHC(Me)(CH2OH)2 = CC(CO)(CO)N*; NHC(CH2OH)3 = OCC(CO)(CO)N*; ξ3Pal = NC(Cc1cccnc1)C(=O)O; Isovaleryl = CC(C)CC(=O)*; Nle = CCCC[C@H](N)C(=O)O; Boc = CC(C)(C)OC(=O)*; X2 = OCC1(N*)CCCCC1; X1 = CC(C)(CO)N*

Key:
[1] = molecular target: T1, renin (Homo sapiens, UniProt P00797); settings: cited from earlier work
T1 sequence (P00797 67-406): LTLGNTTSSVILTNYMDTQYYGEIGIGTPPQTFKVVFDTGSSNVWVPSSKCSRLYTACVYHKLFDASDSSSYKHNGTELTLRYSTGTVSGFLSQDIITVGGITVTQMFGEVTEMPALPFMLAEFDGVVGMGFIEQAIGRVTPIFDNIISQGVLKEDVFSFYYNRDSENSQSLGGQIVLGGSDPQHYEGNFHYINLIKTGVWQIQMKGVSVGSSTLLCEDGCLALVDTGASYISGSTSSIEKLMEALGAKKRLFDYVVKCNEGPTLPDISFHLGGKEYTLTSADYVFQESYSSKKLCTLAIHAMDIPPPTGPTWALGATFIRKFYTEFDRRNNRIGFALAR

[2] = molecular target: T2, human plasma renin activity (PRA) (Homo sapiens, UniProt P00797); test: Inhibition of human plasma renin activity (PRA), angiotensin I released measured by radioimmunoassay; assay type: biochemical; settings: human plasma pool, 60 minutes at 37° C., phosphate buffer pH 7.4; IC50 evaluated in mol, expressed as -log IC50
T2 construct: from tissue; host or cells: human plasma pool
T2 sequence (P00797 67-406): T1 sequence (P00797 67-406)
Experimental: The products according to the invention were studied for their therapeutic properties and especially their inhibitory action on enzymes. More particularly, the compounds were evaluated "in vitro" in terms of their inhibition of human plasma renin activity (PRA).
The method of evaluation is based on that of GUYENE (J. Clin. Endocrinol. Metab., 1976, 43, 1301). The inhibition of PRA is evaluated from a human plasma pool rich in renin ([…] of angiotensin I released per milliliter per hour), incubated for 60 minutes at 37° C., in a phosphate buffer at pH 7.4, in the presence of increasing concentrations of the product to be studied.
Human plasma contains the substrate angiotensinogen and the enzyme:renin. The angiotensin I released during the reaction is measured by radioimmunoassay: Plasma Renin Activity Kit from Travenol (nos. CA 533, 553). An inhibitor of the conversion enzyme, phenylmethylsulfonyl fluoride (PMSF), is added to the incubation medium. The total incubation volume is 555 microliters made up as follows:
420 microliters of human plasma
11 to 50 microliters of the product to be studied, at variable concentrations
119 to 80 microliters of phosphate buffer 5 microliters of PMSF.
A 1N solution of acetic acid in methanol (19/1 by volume) and a 1N solution of sodium hydroxide in methanol (2/1 by volume) are prepared. In a mixture of equal volumes of these 2 solutions, a 0.001M stock solution of the product to be studied is prepared. The subsequent dilutions are then made up in the phosphate buffer.
The results are expressed as their logarithmic value (-log IC50).

Row | Structure (SMILES) | IC50 [2] [nM] | affinity for renin [1]
1 | CC(C)CC(=O)N[C@H](C(=O)N[C@H](C(=O)N[C@@H](CC(C)C)[C@@H](O)CC(=O)N[C@@H](C)C(=O)N[C@@H](CC(C)C)[C@@H](O)CC(=O)O)C(C)C)C(C)C [Pepstatin, isovaleryl-L-valyl-L-valyl-statyl-L-alanyl-statin] (Isovaleryl-VV[Sta]A[Sta]-OH) | – | low affinity for renin
2 | CCCC[C@H](NC(=O)[C@H](Cc1ccccc1)NC(=O)OC(C)(C)C)C(=O)N[C@@H](CC(C)C)[C@@H](O)CC(=O)N[C@H](C(=O)NC(C)(C)CO)[C@@H](C)CC [SR 43 686] (Boc-F[Nle][Sta]I-X1) | 6.03 | –
3 | CCCC[C@H](NC(=O)[C@H](Cc1ccccc1)NC(=O)OC(C)(C)C)C(=O)N[C@@H](CC1CCCCC1)[C@@H](O)CC(=O)N[C@H](C(=O)NC(C)(CO)CO)[C@@H](C)CC [SR 43 721] | 7.76 | –
4 | CC[C@H](C)[C@H](NC(=O)C[C@H](O)[C@H](CC(C)C)NC(=O)C(Cc1cccnc1)NC(=O)[C@H](Cc1ccccc1)NC(=O)OC(C)(C)C)C(=O)NC(C)(CO)CO (some centres unmarked) [SR 43 763] (Boc-F[ξ3Pal][Sta]I-{NHC(Me)(CH2OH)2}) | 77.6 | –
5 | CCCC[C@H](NC(=O)[C@H](Cc1ccccc1)NC(=O)OC(C)(C)C)C(=O)N[C@@H](CC(C)C)[C@@H](O)CC(=O)N[C@@H](C)C(=O)NC(C)(C)CO [SR 43 860] (Boc-F[Nle][Sta]A-X1) | 33.1 | –
6 | CC[C@H](C)[C@H](NC(=O)C[C@H](O)[C@H](CC(C)C)NC(=O)[C@H](Cc1cn(C)cn1)NC(=O)[C@H](Cc1ccccc1)NC(=O)CCc1cccnc1)C(=O)NC(C)(C)CO [SR 43 966] ({Propanoyl(3-(3-pyridyl))}-F[His(τ-Me)][Sta]I-X1) | 19.1 | –
7 | CCCC[C@H](NC(=O)[C@H](Cc1ccccc1)NC(=O)OC(C)(C)C)C(=O)N[C@@H](CC(C)C)[C@@H](O)CC(=O)N[C@H](C(=O)NC(CO)(CO)CO)[C@@H](C)CC [SR 44 094] (Boc-F[Nle][Sta]I-{NHC(CH2OH)3}) | 18.2 | –
8 | CC[C@H](C)[C@H](NC(=O)C[C@H](O)[C@H](CC1CCCCC1)NC(=O)[C@H](Cc1nc2ccccc2[nH]1)NC(=O)[C@H](Cc1ccccc1)NC(=O)OC(C)(C)C)C(=O)NC(C)(CO)CO [SR 44 125] | 36.3 | –

Continued by falling IC50 [2], values first:

Row | IC50 [2] [nM] | Structure (SMILES) | affinity for renin [1]
9 | 5.5 | CCCC[C@H](NC(=O)[C@H](Cc1ccccc1)NC(=O)OC(C)(C)C)C(=O)N[C@@H](CC(C)C)[C@@H](O)CC(=O)N[C@H](C(=O)NC1(CO)CCCCC1)[C@@H](C)CC [SR 43 799] (Boc-F[Nle][Sta]I-X2) | –
10 | 3.98 | CCCC[C@H](NC(=O)[C@H](Cc1ccccc1)NC(=O)OC(C)(C)C)C(=O)N[C@@H](Cc1ccccc1)[C@@H](O)CC(=O)N[C@H](C(=O)NC(CO)(CO)CO)[C@@H](C)CC [SR 43 576] | –
11 | 3.55 | CCCC[C@H](NC(=O)[C@H](Cc1ccccc1)NC(=O)CCc1cccnc1)C(=O)N[C@@H](CC(C)C)[C@@H](O)CC(=O)N[C@H](C(=O)NC(C)(CO)CO)[C@@H](C)CC [SR 43 707] ({Propanoyl(3-(3-pyridyl))}-F[Nle][Sta]I-{NHC(Me)(CH2OH)2}) | –
12 | 2.63 | CCCC[C@H](NC(=O)[C@H](Cc1ccccc1)NC(=O)OC(C)(C)C)C(=O)N[C@@H](CC(C)C)[C@@H](O)CC(=O)N[C@H](C(=O)NC(C)(CO)CO)[C@@H](C)CC [SR 43 574] (Boc-F[Nle][Sta]I-{NHC(Me)(CH2OH)2}) | –
13 | 2.14 | CC[C@H](C)[C@H](NC(=O)C[C@H](O)[C@H](CC(C)C)NC(=O)[C@H](Cc1c[nH]cn1)NC(=O)[C@H](Cc1ccccc1)NC(=O)CCc1cccnc1)C(=O)NC(C)(CO)CO [SR 43 737] ({Propanoyl(3-(3-pyridyl))}-FH[Sta]I-{NHC(Me)(CH2OH)2}) | –
14 | 0.479 | CCCC[C@H](NC(=O)[C@H](Cc1ccccc1)NC(=O)CCc1cccnc1)C(=O)N[C@@H](Cc1ccccc1)[C@@H](O)CC(=O)N[C@H](C(=O)NC(CO)(CO)CO)[C@@H](C)CC [SR 43 603] | –
